Results: US4554272A, “Substituted quinazolino-1,4-benzodiazepin-6,9-diones and their preparation” (Merck & Co., Inc., priority 1985, dated 1985)

Columns and labels:
CCK receptor (pancreas) = biological target: T1, CCK receptor (pancreas) (Rattus norvegicus, UniProt P30551); experiment: CCK Receptor Binding (pancreas); set-up: species or system rat (male Sprague-Dawley); conditions: for IC50: rat pancreas membranes, 125I-CCK-33, 37° C., 30 minutes, read-out: I-CCK-8 Pancreas IC50
T1 construct: The whole pancreas of a male Sprague-Dawley rat; from tissue; host or cells: whole pancreas of male Sprague-Dawley rat, washed membrane suspension
T1 sequence (P30551 1-444): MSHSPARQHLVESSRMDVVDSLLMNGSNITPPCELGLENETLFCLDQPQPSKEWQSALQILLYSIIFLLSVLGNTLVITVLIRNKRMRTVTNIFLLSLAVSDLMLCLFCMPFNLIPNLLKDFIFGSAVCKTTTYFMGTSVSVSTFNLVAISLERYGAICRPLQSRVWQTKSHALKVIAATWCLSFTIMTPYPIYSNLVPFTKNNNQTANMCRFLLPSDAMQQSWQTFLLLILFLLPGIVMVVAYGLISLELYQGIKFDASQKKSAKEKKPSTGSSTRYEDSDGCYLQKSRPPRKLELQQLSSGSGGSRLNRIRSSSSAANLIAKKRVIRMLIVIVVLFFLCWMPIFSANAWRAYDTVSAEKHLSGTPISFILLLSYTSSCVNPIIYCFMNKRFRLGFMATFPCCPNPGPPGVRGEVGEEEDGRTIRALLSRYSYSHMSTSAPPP
Description: (§1) Screening of the novel compounds according to the present invention to determine biological activity and obtain an IC50 value for them (in order to identify significant CCK-antagonism) is accomplished using an ^125 I-CCK receptor binding assay and in vitro isolated tissue preparations. These tests involve the following:
CCK Receptor Binding (pancreas) Method
CCK-33 is radiolabeled with ^125 I-Bolton Hunter reagent (2000 Ci/mmole), as described by Sankara et al. (J. Biol. Chem., 254, 9349-9351, 1979). Receptor binding is performed according to Innis and Snyder (Proc. Natl. Acad. Sci., 77, 6917-6921, 1980), with the minor modification of adding the additional protease inhibitors, phenylmethane sulfonyl fluoride and o-phenanthroline, which have no effect on the ^125 I-CCK receptor binding assay.
The whole pancreas of a male Sprague-Dawley rat (200-350 g), which has been sacrificed by decapitation, is dissected free of fat tissue and homogenized in 20 volumes of ice-cold 50 mM Tris HCl (pH 7.7 at 25° C.) with a Brinkman Polytron PT-10. The homogenates are centrifuged at 48,000 g for 10 minutes, then the resulting pellets are resuspended in Tris Buffer, centrifuged as above, and resuspended in 200 volumes of binding assay buffer (50 mM Tris HCl, pH 7.7 at 25° C., 5 mM dithiothreitol, 0.1 mM bacitracin, 1.2 mM phenylmethane sulfonyl fluoride and 0.5 mM o-phenanthroline).
For the binding assay, 25 μl of buffer (for total binding), or unlabeled CCK-8 sulfate sufficient to give a final concentration of 1 μM of CCK-8 (for nonspecific binding), or the compounds of the formula of the compounds according to the instant invention (for determination of antagonism to ^125 I-CCK binding) and 25 μl of ^125 I-CCK-33 (30,000-40,000 cpm), are added to 450 μl of the membrane suspensions in microfuge tubes. All assays are run in duplicate or triplicate, and the reaction mixtures are incubated at 37° C. for 30 minutes and centrifuged in a Beckman Microfuge (4 minutes) immediately after adding 1 ml of ice-cold incubation buffer. The supernatant is aspirated and discarded, and the pellets are counted with a Beckman Gamma 5000.
(§2) Representative formula I compounds listed were tested as CCK-antagonists (in I-CCK-8 pancreas and ^125 I-CCK Brain assays) with results, as tabulated in the following table.

[1] = biological target: T2, CCK receptor (brain, cerebral cortex) (Cavia porcellus, UniProt H0VZC5); experiment: CCK Receptor Binding (brain); set-up: species or system guinea pig (male Hartley); conditions: guinea pig cerebral cortex; 125I-CCK-33, pH 6.5, 25° C., 2 hours
T2 construct: The cerebral cortex is dissected and used as a receptor source; from tissue; host or cells: cerebral cortex of male Hartley guinea pig, washed membrane suspension
T2 sequence (H0VZC5 1-426): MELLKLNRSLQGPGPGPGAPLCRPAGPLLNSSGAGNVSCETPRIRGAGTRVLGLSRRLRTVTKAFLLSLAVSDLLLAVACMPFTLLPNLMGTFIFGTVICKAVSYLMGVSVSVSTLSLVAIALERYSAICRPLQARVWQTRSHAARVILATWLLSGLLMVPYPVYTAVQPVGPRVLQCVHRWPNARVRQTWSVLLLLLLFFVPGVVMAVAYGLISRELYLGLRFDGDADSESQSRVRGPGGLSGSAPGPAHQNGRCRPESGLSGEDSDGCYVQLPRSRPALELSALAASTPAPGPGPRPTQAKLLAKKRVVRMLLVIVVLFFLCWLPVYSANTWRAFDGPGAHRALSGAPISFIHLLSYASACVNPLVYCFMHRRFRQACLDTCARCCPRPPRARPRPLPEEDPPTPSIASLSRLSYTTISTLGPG
Experimental: as §1
(§3) CCK Receptor Binding (brain) Method
(§4) CCK-33 is radiolabeled and the binding is performed according to the description for the pancreas method, with modifications according to Saito et al., J. Neurochem., 37, 483-490, 1981.
(§5) Male Hartley guinea pigs (300-500 g) are sacrificed by decapitation, and the brains are removed and placed in ice-cold 50 mM Tris HCl (Trizma-7.4) [pH 7.4 at 25° C.]. The cerebral cortex is dissected and used as a receptor source and each gram of fresh guinea pig brain tissue is homogenized in 10 ml of Tris/Trizma buffer with a Brinkman polytron PT-10. The homogenates are centrifuged at 42,000 g for 15 minutes, then the resulting pellets are resuspended in 80 volumes of binding assay buffer (10 mM N-2-hydroxyethyl-piperazine-N'-2-ethanesulfonic acid (HEPES), 5 mM MgCl2, 1 mM ethylene glycol-bis(β-amino-ethyl-ether-N,N'-tetraacetic acid (EGTA), 0.4% BSA and 0.25 mg/ml bacitracin, pH 6.5).
(§6) The remainder of the inding assay method is as described for the pancreas method, except that the reaction mixtures are incubated at 25° C. for 2 hours before […].
as §2

[2] = tested on: CCK receptor (brain, cerebral cortex); experiment: CCK Receptor Binding (brain); set-up: species or system guinea pig (male Hartley); conditions: in words, comment on Table 1 (pancreas vs brain); especially vs formula Ia and Example 13
Experimental: as §1, §3, §4, §5, §6, §2

Row | SMILES | IC50 (CCK receptor (pancreas)) [µM] | IC50 [1] [µM] | selectivity compared with the other compounds [2] | potency compared with the formula Ia compound (CCK receptor (pancreas); in words, comment on Table 1 (pancreas and brain binding))
1 | O=C1Nc2ccccc2-c2nc3ccccc3c(=O)n2[C@H]1Cc1ccc(O)cc1 [Example 16, 7β-[(4-hydroxyphenyl)methyl]quinazolino(3,2-D)(1,4)-benzodiazepin-6,9(5H,7H)-dione hydrate] | 100 | 100 |  | 
2 | C[C@H]1C(=O)Nc2ccccc2-c2nc3ccccc3c(=O)n21 [Example 14, 7β-methylquinazolino(3,2-D)(1,4)benzodiazepin-6,9-(5H,7H)-dione] | 100 | 100 |  | 
3 | O=C1Cn2c(nc3ccccc3c2=O)-c2ccccc2N1 [Example 15, quinazolino(3,2-D)(1,4)benzodiazepin-6,9(5H,7H)-dione] | 100 | 100 |  | 

Second part, the compound after the results:

Row | IC50 (CCK receptor (pancreas)) [µM] | IC50 [1] [µM] | selectivity compared with the other compounds [2] | potency compared with the formula Ia compound (CCK receptor (pancreas); in words, comment on Table 1 (pancreas and brain binding)) | SMILES
4 | 104 | 51 | substantial change in selectivity |  | CN1C(=O)[C@H](Cc2c[nH]c3ccccc23)n2c(nc3ccccc3c2=O)-c2ccccc21 [Example 19, 5-methyl-7β-[(1H-indol-3-yl)methyl]quinazolino(3,2-D)(1,4)benzodiazepin-6,9(5H,7H)-dione hydrate]
5 | 67 | 100 |  | improved | O=C1Nc2ccccc2-c2nc3ccccc3c(=O)n2[C@@H]1Cc1c[nH]c2ccccc12 [Example 13, 7α-[(1H-indol-3-yl)methyl]quinazolino(3,2-D)-1,4-benzodiazepin-6,9(5H,7H)-dione hydrate]
6 | 76 | 110 |  |  | O=C1Nc2ccccc2-c2nc3ccccc3c(=O)n2[C@H]1Cc1c[nH]c2ccccc12 [*, 7β-[(1H-indol-3-yl)methyl]quinazoline(3,2-D)(1,4)benzodiazepin-6,9(5H,7H)-dione, reference compound]
